Legend:
[1] = test system: NOTCH1; experiment: NOTCH1 protein level in brain, capillary-based immunoassay; type: in vivo, mouse; settings: aged 3xTg-AD female mice; TP-064 30 mg/kg, 7 days, IP or AAV knockdown
Description: NOTCH1 protein level in cortex, FIG. 13A, and hippocampus, FIG. 13B, was decreased in aged 3xTg-AD female mice v. male counterparts. Treatment with specific PRMT4 specific inhibitor (TP-064, 30 mg/kg, 7 days, IP) or AAV knockdown of PRMT4 enhanced NOTCH1 protein level in cortex, […], and hippocampus, […], in aged 3xTg-AD female mice. Relative NOTCH1 protein (˜110 kDa) level was measured by capillary-based immunoassay and normalized to total protein. * p<0.05 v. control male mice evaluated by unpaired t-test in FIGS. 13A and 13B. * p<0.05 compared to C57, #p<0.05 compared to 3xTg-AD+TP-064, $p<0.05 compared to 3xTg-AD+AAV, evaluated by one-way ANOVA with Tukey's post-hoc analyses in FIGS. 13C and 13D.
FIGS. 16A-16G show NOTCH1 inhibition (via crenigacestat) decreased ZO-1 and occluding and AAV knockdown of PRMT4 enhanced ZO-1 and occludin. […] C57 female mice. FIGS. 16B and 16C show crenigacestat (10 mg/kg, IP, 7 days) reduced NOTCH1 (110 kDa) protein level in the cortex and hippocampus of aged C57 female mice. AAV knockdown of PRMT4 increased NOTCH1 protein level. FIGS. 16D-16G show ZO-1 (220 kDa), and occludin (60 kDa) tight junctional proteins were decreased in the cortex and hippocampus in presence of NOTCH1 inhibitor in C57. PRMT4-AAV increased the expression of ZO-1 and occludin in aged 3xTg-AD female mice. Protein level was measured by capillary-based immunoassay and normalized to total protein. * p<0.05 compared to C57, #p<0.05 compared to 3xTg-AD, $p<0.05 compared to 3xTg-AD+AAV as evaluated by one-way ANOVA with Tukey's post-hoc analyses.
Capillary-phoresis immunoassay via ProteinSimple®: Quantification of all protein targets was achieved using Simple Western analysis in a Jess™ apparatus per the manufacturer's protocol (ProteinSimple, Bio-techne, Minneapolis, MN). […] Following homogenization and centrifugation (10,000×g, 5 min, 4° C.), protein concentration was determined in tissue protein supernatant samples using DC Protein Assay (Cat. No. 5000112, Bio-Rad Laboratories, Hercules, California) according to manufacturer instructions. […] Antibody diluent (ProteinSimple, Bio-techne, Minneapolis, MN) was used for all antibody dilutions as follows: PRMT4 (1:50, RRID: AB_2068436), PRMT6 (1:100, Cell Signaling Technology cat. 14641), eNOS (1:200, RRID: AB_10850618), nNOS (1:100, RRID: AB_2152488), iNOS (1:100, RRID: AB_10000625), DDAH2 (1:50, RRID: AB_2640442) Antibodies were detected using HRP-conjugated secondary anti-rabbit, and -mouse. Relative protein levels were calculated by measuring the area under the peak of a chemiluminescent chromatogram and normalized to total capillary chemiluminescence for a given sample. […]

[2] = test system: C57BL/6J mice; experiment: Regional cortical cerebral blood flow, laser speckle contrast imaging, C57 mice; type: in vivo, mouse
Description: Surgical Preparation and Anesthetic Procedure: Mice were anesthetized with 4% isoflurane (Cat. No. 21295098, Patterson Veterinary, Greeley, CO) and a mixture of O2 and N2O (30:70) via mask. Hair was shaved at the site of surgery (from the nape up to the eyes). Body temperature was maintained at 37° C. by a rodent heating pad with anal probe as a temperature reference (ThermoStar, RWD Life Science, San Diego, CA). Anesthesia was maintained by lowering isoflurane from 4% to 1%.
Thinned-skull preparation: Mice were placed in a stereotaxic frame to stabilize the skull and artificial tears (Patterson Veterinary, Greeley, CO) was applied in each eye. Dissection scissors and forceps were used to reveal the skull. A high-speed dental drill (RWD Life Science, San Diego, CA) was used to thin the skull creating a small window (1 mm in diameter) approximately 2 mm rostral and 1 mm lateral to the lambda, with saline irrigation to prevent overheating of the skull tissue. Laser speckle contrast imaging or two-photon laser scanning microscopy analyses were conducted following this preparation.
Laser speckle contrast imaging: Cerebral microvasculature was imaged by utilizing the thin skull preparation method. After thinning the skull, the mouse was placed in a stereotaxic apparatus. […]

For `CNCCN1CCC(c2cc(CN(C)C(=O)c3cccc(Oc4ccccc4)c3)ccn2)CC1` [TP-064, N-Methyl-N-((2-(1-(2-(methylamino)ethyl)piperidin-4-yl)pyridin-4-yl)methyl)-3-phenoxybenzamide], the “NOTCH1 protein level in cortex” value [1] was “enhanced”, the “NOTCH1 protein level in hippocampus” value [1] was “enhanced” and the perfusion ([2]; C57 mice, decreased PRMT4 via TP-064/PRMT4-AAV) was “did not affect”. The “regional cortical CBF” value ([2]; treated C57BL/6J mice, 30 mg/kg, IP, 7 days) was 98.3±10.1%.

Reference: patent US20240238268A1, “TREATMENTS AND METHODS FOR TREATING ALZHEIMER'S DISEASE” (Board of Supervisors of Louisiana State University and …, priority 2021, published 2024)
